Results reported in patent US10174067B2, “Type of cytidine derivative and application thereof” (priority 2014, dated 2019).
Marks after values point to notes of the source that are not given here.

Experiments:
[1] = for Weight change rate, Day 0 / Weight of mice, Day 0 / Weight change rate, Day 4 / Weight of mice, Day 4 / Weight change rate, Day 6 / Weight of mice, Day 6 / Weight change rate, Day 8 / Weight of mice, Day 8 / Weight change rate, Day 11 / Weight of mice, Day 11 / Weight change rate, Day 13 / Weight of mice, Day 13 / Weight change rate, Day 15 / Weight of mice, Day 15 / Weight change rate, Day 18 / Weight of mice, Day 18 / Weight change rate, Day 20 / Weight of mice, Day 20 / Weight change rate, Day 22 / Weight of mice, Day 22: G3-G9 groups, single IP dose, Mean±SEM; for Day 22 Mortality: single IP dose (mg/kg); for clinical symptoms: after single IP dose, compared with model control group
Method in brief: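 Female SPF Balb/c nude mice bearing subcutaneous HCT-116 xenografts (3×10^6 cells, right hind limb), grouped at 60–150 mm^3, 6 per group; vehicle ethanol/Cremophor EL/saline 5:5:90. Body weight thrice weekly; tumours excised and weighed at sacrifice; Mean±SEM, unpaired t-test, P<0.05.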

[2] = system: HCT-116 colon cancer xenografts; test: Tumor growth inhibition of HCT-116 colon cancer xenografts in tumor-bearing nude mice (tumor volume, TGI %, RTV, T/C %); type: in vivo, Balb/c Nude mice; details: for Day 0 (RTV) / Tumor volume, Day 0 / Day 4 (RTV) / Tumor volume, Day 4 / Day 6 (RTV) / Tumor volume, Day 6 / Day 8 (RTV) / Tumor volume, Day 8 / Day 11 (RTV) / Tumor volume, Day 11 / Day 13 (RTV) / Tumor volume, Day 13 / Day 15 (RTV) / Tumor volume, Day 15 / Day 18 (RTV) / Tumor volume, Day 18 / Day 20 (RTV) / Tumor volume, Day 20 / Day 22 (RTV) / Tumor volume, Day 22: Mean±SEM; for T/C % (relative tumor proliferation rate): single-dose intraperitoneal, dosage mg/kg: G3, G4, G8 350, G5, G9 325, G6 300, G7 250; for maximum value of TGI %: day of maximum: G3 Day 8, G4 Day 11, G5 Day 11, G9 Day 4, G7 Day 8;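 for T/C % (relative tumor proliferation rate): control C is the vehicle-treated model control group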
Method in brief: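 Nude mice inoculated with HCT-116 cells (about 3×10^7 cells/mL in serum-free medium). Tumor diameter measured three times weekly and volume computed as V=3/4π(D/2)^3. Activity expressed as TGI (%) and T/C (%) from relative tumor volume Vt/V0, with V0 taken at grouping and dosing start; P<0.05 significant.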

ICR mice = test: in vivo; details: female ICR mice; single-dose ip
Method in brief: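 Female SPF ICR mice received a single ip dose in ethanol/Cremophor EL/saline (5:5:90), with dose lowered after deaths and raised otherwise. MTD defined as dose causing no death, no >10% weight loss versus Day 0 and no significant side effects; daily weights and twice-daily clinical observation over 7-14 days.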

[3] = Day 0, G3-G9 groups, single IP dose
[4] = Day 4, G3-G9 groups, single IP dose
[5] = Day 6, G3-G9 groups, single IP dose
[6] = Day 8, G3-G9 groups, single IP dose
[7] = Day 11, G3-G9 groups, single IP dose
[8] = Day 13, G3-G9 groups, single IP dose
[9] = Day 15, G3-G9 groups, single IP dose
[10] = Day 18, G3-G9 groups, single IP dose
[11] = Day 20, G3-G9 groups, single IP dose
[12] = Day 22, G3-G9 groups, single IP dose

O=C(Nc1nc(=O)n([C@@H]2O[C@H](CO)[C@@H](O)C2(F)F)cc1Br)OCc1ccccc1 [Compound G7, 5-Br-4-N-(carboxybenzyl)-2′-deoxy-2′,2′-difluorocytidine]
Weight change rate, Day 0 [1]: 0.00 ± 0.00%
Weight of mice, Day 0 [1]: 21.63 ± 1.17 g
weights of animals on Day 4 after administration ([1]; Day 4 (G7: Day 4 and Day 6), p<0.05): significantly reduced
Weight change rate, Day 4 ([1]; Day 4): −12.28 ± 4.78 %
Weight of mice, Day 4 ([1]; Day 4): 18.87 ± 0.09 g
weight loss rate on Day 4 after administration ([1]; Day 4, G4 350 mg/kg, G5 325 mg/kg, G7 250 mg/kg, single IP): 12.28±4.78%
Weight change rate, Day 6 ([1]; Day 6): −4.39 ± 3.60 %
Weight of mice, Day 6 ([1]; Day 6): 20.60 ± 0.32 g
weight loss rate on Day 6 after administration ([1]; Day 6, G7 250 mg/kg, single IP): 4.39±3.6%
Weight change rate, Day 8 [1]: −1.24 ± 2.80%
Weight of mice, Day 8 [1]: 21.30 ± 0.55 g
Weight change rate, Day 11 [1]: 1.86 ± 3.24%
Weight of mice, Day 11 [1]: 21.97 ± 0.59 g
Weight change rate, Day 13 [1]: 5.62 ± 2.15%
Weight of mice, Day 13 [1]: 22.80 ± 0.76 g
Weight change rate, Day 15 [1]: 7.71 ± 1.47%
Weight of mice, Day 15 [1]: 23.27 ± 0.93 g
Weight change rate, Day 18 [1]: 6.51 ± 2.30%
Weight of mice, Day 18 [1]: 23.00 ± 0.90 g
Weight change rate, Day 20 [1]: 5.54 ± 2.07%
Weight of mice, Day 20 [1]: 22.80 ± 1.00 g
Weight change rate, Day 22 [1]: 4.65 ± 2.51%
Weight of mice, Day 22 [1]: 22.60 ± 0.95 g
Day 22 Mortality [1]: 0%
clinical symptoms [1]: no significant differences in clinical symptoms
Day 0 (RTV) [2, 3]: 1.00 ± 0.00
Tumor volume, Day 0 [2, 3]: 133.56 ± 10.23 mm^3
T/C % (relative tumor proliferation rate) ([2]; Day 0): 0.00%
Day 4 (TGI %) [2, 4]: 53.12%
Day 4 (RTV) [2, 4]: 0.92 ± 0.08
Tumor volume, Day 4 [2, 4]: 124.90 ± 18.89* mm^3
T/C % (relative tumor proliferation rate) ([2]; Day 4): 48.99%
Day 6 (TGI %) [2, 5]: 78.40%
Day 6 (RTV) [2, 5]: 0.66 ± 0.12
Tumor volume, Day 6 [2, 5]: 91.30 ± 21.79** mm^3
T/C % (relative tumor proliferation rate) ([2]; Day 6): 22.02%
Day 8 (TGI %) [2, 6]: 82.62%
Day 8 (RTV) [2, 6]: 0.66 ± 0.12
Tumor volume, Day 8 [2, 6]: 91.30 ± 21.79*** mm^3
T/C % (relative tumor proliferation rate) ([2]; Day 8): 17.67%
tumor inhibition effect ([2]; Day 8 to Day 13 after single-dose intraperitoneal administration): good tumor inhibition effect
Day 11 (TGI %) [2, 7]: 81.27%
Day 11 (RTV) [2, 7]: 1.10 ± 0.23
Tumor volume, Day 11 [2, 7]: 150.60 ± 38.77** mm^3
T/C % (relative tumor proliferation rate) ([2]; Day 11): 18.54%
Day 13 (TGI %) [2, 8]: 80.80%
Day 13 (RTV) [2, 8]: 1.66 ± 0.10
Tumor volume, Day 13 [2, 8]: 222.86 ± 25.56** mm^3
T/C % (relative tumor proliferation rate) ([2]; Day 13): 19.33%
Day 15 (TGI %) [2, 9]: 72.81%
Day 15 (RTV) [2, 9]: 2.91 ± 0.35
Tumor volume, Day 15 [2, 9]: 384.06 ± 36.79* mm^3
T/C % (relative tumor proliferation rate) ([2]; Day 15): 27.80%
Day 18 (TGI %) [2, 10]: 65.62%
Day 18 (RTV) [2, 10]: 4.86 ± 0.65
Tumor volume, Day 18 [2, 10]: 636.39 ± 30.26* mm^3
T/C % (relative tumor proliferation rate) ([2]; Day 18): 35.32%
Day 20 (TGI %) [2, 11]: 51.28%
Day 20 (RTV) [2, 11]: 7.99 ± 1.70
Tumor volume, Day 20 [2, 11]: 1032.60 ± 127.82 mm^3
T/C % (relative tumor proliferation rate) ([2]; Day 20): 50.40%
Day 22 (TGI %) [2, 12]: 44.07%
Day 22 (RTV) [2, 12]: 11.40 ± 2.93
Tumor volume, Day 22 [2, 12]: 1462.80 ± 246.74 mm^3
T/C % on Day 22 ([2]; Day 22, G4 350 mg/kg, G5 325 mg/kg, G7 250 mg/kg, single IP): 58.62%
T/C % (relative tumor proliferation rate) ([2]; Day 22): 58.62%
relative tumor volume compared with the model control group ([2]; G4 and G5 Day 4 to Day 18, G7 Day 4 to Day 15 (p<0.05-0.01), G9 only Day 4 (p<0.05)): reduced significantly
maximum value of TGI % ([2]; single IP): 82.62%
minimum value of T/C % ([2]; day of minimum: G4 Day 13, G5 Day 11, G7 Day 8, single IP): 17.67%
dose that could be tolerated (maximum tolerated dose, MTD) (ICR mice): 200 mg/kg

CC(C)(C)OC(=O)Nc1ccn([C@@H]2O[C@H](CO)[C@@H](O)C2(F)F)c(=O)n1 [Compound G3, 4N-(t-butyloxycarbonyl)-2′deoxy-2′,2′-difluorocytidine]
Weight change rate, Day 0 [1]: 0.00 ± 0.00%
Weight of mice, Day 0 [1]: 20.47 ± 0.42 g
Weight change rate, Day 4 ([1]; Day 4): 3.13 ± 1.03 %
Weight of mice, Day 4 ([1]; Day 4): 21.10 ± 0.41 g
Weight change rate, Day 6 ([1]; Day 6): 4.36 ± 0.88%
Weight of mice, Day 6 ([1]; Day 6): 21.35 ± 0.39 g
Weight change rate, Day 8 [1]: 2.86 ± 2.28%
Weight of mice, Day 8 [1]: 21.03 ± 0.52 g
Weight change rate, Day 11 [1]: 4.67 ± 0.64%
Weight of mice, Day 11 [1]: 21.43 ± 0.56 g
Weight change rate, Day 13 [1]: 6.20 ± 0.88 %
Weight of mice, Day 13 [1]: 21.75 ± 0.60 g
Weight change rate, Day 15 [1]: 3.40 ± 1.34%
Weight of mice, Day 15 [1]: 21.18 ± 0.66 g
Weight change rate, Day 18 [1]: 2.66 ± 1.40%
Weight of mice, Day 18 [1]: 21.03 ± 0.68 g
Weight change rate, Day 20 [1]: 2.40 ± 1.27%
Weight of mice, Day 20 [1]: 20.98 ± 0.68 g
Weight change rate, Day 22 [1]: 3.33 ± 2.34%
Weight of mice, Day 22 [1]: 21.17 ± 0.77 g
Day 22 Mortality [1]: 0%
clinical symptoms [1]: no significant differences in clinical symptoms
Day 0 (RTV) [2, 3]: 1.00 ± 0.00
Tumor volume, Day 0 [2, 3]: 52.61 ± 13.58** mm^3
T/C % (relative tumor proliferation rate) ([2]; Day 0): 0.00%
Day 4 (TGI %) [2, 4]: 57.58%
Day 4 (RTV) [2, 4]: 1.72 ± 0.37
Tumor volume, Day 4 [2, 4]: 113.01 ± 44.54 mm^3
T/C % (relative tumor proliferation rate) ([2]; Day 4): 91.44%
Day 6 (TGI %) [2, 5]: 57.20%
Day 6 (RTV) [2, 5]: 3.21 ± 0.87
Tumor volume, Day 6 [2, 5]: 180.94 ± 66.04* mm^3
T/C % (relative tumor proliferation rate) ([2]; Day 6): 106.22%
Day 8 (TGI %) [2, 6]: 58.10%
Day 8 (RTV) [2, 6]: 3.91 ± 1.20
Tumor volume, Day 8 [2, 6]: 220.12 ± 86.80* mm^3
T/C % (relative tumor proliferation rate) ([2]; Day 8): 104.00%
Day 11 (TGI %) [2, 7]: 48.19%
Day 11 (RTV) [2, 7]: 7.44 ± 23.2
Tumor volume, Day 11 [2, 7]: 416.66 ± 160.05 mm^3
T/C % (relative tumor proliferation rate) ([2]; Day 11): 125.12%
Day 13 (TGI %) [2, 8]: 54.18%
Day 13 (RTV) [2, 8]: 8.92 ± 2.48
Tumor volume, Day 13 [2, 8]: 531.90 ± 203.98* mm^3
T/C % (relative tumor proliferation rate) ([2]; Day 13): 103.73%
Day 15 (TGI %) [2, 9]: 46.45%
Day 15 (RTV) [2, 9]: 13.32 ± 4.00
Tumor volume, Day 15 [2, 9]: 756.53 ± 280.79 mm^3
T/C % (relative tumor proliferation rate) ([2]; Day 15): 127.18%
Day 18 (TGI %) [2, 10]: 45.71%
Day 18 (RTV) [2, 10]: 17.04 ± 5.01
Tumor volume, Day 18 [2, 10]: 1004.83 ± 385.58 mm^3
T/C % (relative tumor proliferation rate) ([2]; Day 18): 123.71%
Day 20 (TGI %) [2, 11]: 41.37%
Day 20 (RTV) [2, 11]: 21.58 ± 6.58
Tumor volume, Day 20 [2, 11]: 1242.64 ± 464.52 mm^3
T/C % (relative tumor proliferation rate) ([2]; Day 20): 136.12%
Day 22 (RTV) [2, 12]: 24.39 ± 7.52
Tumor volume, Day 22 [2, 12]: 1390.74 ± 510.70 mm^3
T/C % (relative tumor proliferation rate) ([2]; Day 22): 125.42%
maximum value of TGI % ([2]; single IP): 58.10%
dose that could be tolerated (maximum tolerated dose, MTD) (ICR mice): 350 mg/kg
